Values quoted from earlier work, collected in patent US20250002910A1, “TREATMENT OF COMPLEMENT-MEDIATED DISORDERS” (Apellis Pharmaceuticals, Inc., priority 2021, published 2025).

Test system: complement activation
Conditions: relative to compstatin amidated at the C-terminus; published data

Substance | Activity over compstatin
Ac-ICV(2-Nal)QDWGAHRCT-COOH [AcV4(2-Nal)/H9A-OH] | 38x more
Ac-ICVDhtQDWGAHRCT-COOH [Ac-V4Dht/H9A-OH] | 5x more
Ac-ICVWQDWGAHRCdT-COOH [Ac-V4W/H9A/T13dT-OH] | 55x more
H-GICV(6fW)QD(6fW)GAHRCTN-COOH [+G/V4(6fW)/W7(6fW)H9A+N-OH] | 126x more
Ac-ICV(2-IgI)QDWGAHRCT-CONH2 [Ac-V42lgl/H9A] | 39x more
Ac-ICV(Bpa)QDWGAHRCT-CONH2 [Ac-V4(Bpa)/H9A] | 86x more
Ac-ICVVQDWGHHRCT-CONH2 [Ac-compstatin] | 3x more
Ac-ICVWQDWGAHRCT-CONH2 (Ac-ICVWQDWGAHRCT-NH2; not fully specified (bridges); printed as Ac-ICVWQDWGAHRCT-CONH2; cysteine pairing not given here) [Ac-V4W/H9A] | 45x more
Ac-ICV(Bpa)QDWGAHRCT-COOH [Ac-V4(Bpa)/H9A-OH] | 49x more
Ac-ICV(2-Nal)QDWGAHRCT-CONH2 [Ac-V4(2-Nal)/H9A] | 99x more
Ac-ICVWQD(5fW)GAHRCT-CONH2 [Ac-V4W/W7(5fW)/H9A] | 121x more
Ac-ICV(1-Nal)QDWGAHRCT-COOH [AcV4(1-Nal)/H9A-OH] | 30x more
Ac-ICVYQDWGAHRCT-CONH2 [Ac-V4Y/H9A] | 14x more
Ac-ICV(2-IgI)QDWGAHRCT-COOH [Ac-V42lgl/H9A-OH] | 37x more
